The structures appear in SMILES notation.

This data set can be described thus: Agilent ZORBAX 300 SB-C18, 150 × 1 mm, 3.5 µm; A: water + 0.01% heptafluorobutyric acid; B: acetonitrile + 0.01% heptafluorobutyric acid; gradient (min/%B) 0/0 100/90. Particulars: stereoisomer not certain.
In the case of `c1ccc(C(c2ccccc2)c2nc(-c3ccncc3)no2)cc1`, the LC retention time was 14.9 min.

Turning to `C=CCC1(C(C)CCC)C(=O)NC(=O)NC1=O` (stereo unspecified), the LC retention time amounted to 11.4 min.

For the compound `NC1CCOC1=O` (stereo unspecified), the LC retention time was determined as 3.11 min.

As to `CCCCCCCCCC(=O)NCCCCC(=O)O`, the LC retention time turned out to be 13.5 min.

`Cc1cccc(N(C)C)c1`: the LC retention time worked out at 8.26 min.

As to `CC1CCN(C(=O)c2ccc(N)cc2)CC1`, the LC retention time was found to be 9.82 min.

As to `C1CCC(NC2CCCCC2)CC1`, the LC retention time stood at 9.69 min.

As for `CN(C)CCNC1=CC(=O)CC(c2ccccc2)C1` (stereo unspecified), the LC retention time stood at 8.55 min.

As for `CCCCc1ccc(NC(=O)Cc2ccc(OC)c(OC)c2)cc1`, the LC retention time amounted to 15.6 min.

As to `CCNC(=O)c1ccc(CN2CCc3ccccc3C2)cc1`, the LC retention time worked out at 8.52 min.

As for `CC(C)(C=O)CN1CCCC1`, the LC retention time was determined as 6.76 min.

`CCCCNCCCC`: the LC retention time turned out to be 8.38 min.

As to `Cc1ccc(CN2CCN(N=Cc3ccco3)CC2)cc1`, the LC retention time was 9.55 min.

With `CC(=NNC(=O)CNC(=O)C(c1ccccc1)c1ccccc1)c1ccc(N(C)C)cc1`, the LC retention time stood at 13.9 min.

As to `CC(C)(C)c1ccc(C2Nc3ccccc3C(=O)N2c2ccccc2)cc1` (stereo unspecified), the LC retention time was found to be 16.7 min.

As for `Cc1cc(C)c2c(=O)n(CC(=O)NCCC(C)C)c(=O)n(-c3ccccc3)c2n1`, the LC retention time was 14.4 min.

Take `O=C(O)c1c[nH]c(=O)[nH]1`: the LC retention time amounted to 1.64 min.

`O=C(NCCCc1ccccc1)c1ccccc1O`: the LC retention time is 15.3 min.

Take `NC(=O)C1(N2CCCCC2)CCN(C(=O)CN2CCNCC2)CC1`: the LC retention time came to 7.28 min.

As to `CC(C)CN(CC(C)C)CC(C)C`, the LC retention time was determined as 9.7 min.

With `CCOC(=O)c1cnc2ccccc2n1`, the LC retention time came out at 10.7 min.

For `CC(=O)CNC(C)(C)C`, the LC retention time was determined as 6.35 min.

Take `CC(C)OC(=O)C(C)Nc1n[nH]c(=O)[nH]c1=O` (stereo unspecified): the LC retention time was determined as 8.55 min.

Regarding `Cc1c(-c2ccccc2)cc(-c2ccccc2)nc1-c1ccccc1`, the LC retention time is 19.2 min.

`Cc1ccc(-c2ccc3ccccc3n2)cc1`: the LC retention time is 13.4 min.

With `Cc1ncnc2nc[nH]c12`, the LC retention time stood at 5.87 min.

Consider `CCN(CC)c1cc(C)c2ccccc2n1`, for which the LC retention time is 9.54 min.

In the case of `O=C(C(=O)c1cccs1)c1ccccc1`, the LC retention time worked out at 14.4 min.

Turning to `C#CC1(NC(C)=O)CCCCC1`, the LC retention time stood at 9.46 min.

Take `Oc1ccc(-c2cnc3ccccc3n2)cc1`: the LC retention time was 11.4 min.

As for `NC1C(O)OC(CO)C(O)C1O` (stereo unspecified), the LC retention time was determined as 2.77 min.

On to `Cc1nn[nH]n1`, for which the LC retention time was 2.16 min.

On to `COc1cccc2ccc(C)nc12`, for which the LC retention time was found to be 7.77 min.

With `CC(C)CC1(C)NC(=S)N(c2ccccc2)N1` (stereo unspecified), the LC retention time was 14.1 min.

As to `Cc1cc(O)c(C(C)C)cc1NC(=O)Cn1nc(C)c2ccccc2c1=O`, the LC retention time is 11.9 min.

Take `CCCCCNC=O`: the LC retention time was determined as 8.68 min.

As for `CC1(C)CC(N2CN(C3CCCCC3)CC2=O)CC(C)(C)N1`, the LC retention time was determined as 8.03 min.

Regarding `CNC(=S)Nc1ccc2c(c1)CCCC2`, the LC retention time turned out to be 12.5 min.

Regarding `Cc1cc(C)ncn1`, the LC retention time is 7.51 min.

As to `CC(C)NCCNC(C)C`, the LC retention time is 7.16 min.

As for `CN1CCCC1`, the LC retention time worked out at 5.54 min.

For the compound `COc1ccc(C=NCCC2=CCCCC2)cc1OC`, the LC retention time was found to be 10 min.

With `Cc1ccc(C)n1-c1cccc(C(=O)O)c1`, the LC retention time worked out at 12.9 min.

`CN(C)c1ccc(CNC2CC(C)(C)NC(C)(C)C2)cc1`: the LC retention time was determined as 8.12 min.

As for `CC(=O)N(C)C1=C(N2CCCC2)C(=O)c2ccccc2C1=O`, the LC retention time turned out to be 11.2 min.

As for `CCCCC(CC)CNCC(CC)CCCC` (stereo unspecified), the LC retention time stood at 14.2 min.

Values taken from the RepoRT retention time repository.
